# Results reported in patent US9855292B2, “Cyanocobalamin, methylcobalamin, and/or adenosylcobalamin to help maintain a pain-free head and pain-free body and provide defense against headaches and body pain” (priority 2013, dated 2018).
# Where two headings read alike, the source gives them in different places.
# Key:
# [1] = Example 2 Phase 3 study: safety; assay type: in vivo, human; settings: 3.3 mg a.m. and p.m., six weeks
# Text: This clinical study was designed and directed by the inventor of the current patent. A large, multi-center, Phase 3, randomized, placebo-controlled clinical study on 1,551 patients was designed and directed by the inventor of the current patent. Methods: The study was titled: “A Phase 3, randomized, double-blind, placebo-controlled, parallel group study of the safety and efficacy of pre-seasonal sublingual cyanocobalamin lozenges on moderate to moderately severe seasonal allergic rhinitis in humans”. The study took place before and during the ragweed pollen season at 23 study sites in the Midwest, Northeast and Central Texas regions of the United States. Essentially all of the 23 investigators were Board Certified in Allergy/Immunology. Qualified subjects were randomized into an active or placebo group (approximately 50% and 50%) using an interactive voice recognition system (IVRS). […] The blood samples were analyzed by chemiluminescent immunoassay for the presence of ragweed specific immunoglobulin epsilon (IgE), and were assayed for cobalamins (cyanocobalamin, methylcobalamin and adenosylcobalamin) levels.
# Any adverse event (AE) or serious adverse event (SAE) was documented by the subject in a paper diary and then transcribed to the appropriate case report form (CRF) page. […] All sites were monitored multiple times by qualified monitors.
# [2] = test system: headache and body pain in humans; test: Example 2 Phase 3 study: documented reports of headache and body pain; assay type: in vivo, human; settings: active group
# Text: This clinical study was designed and directed by the inventor of the current patent. A large, multi-center, Phase 3, randomized, placebo-controlled clinical study on 1,551 patients was designed and directed by the inventor of the current patent. Methods: The study was titled: “A Phase 3, randomized, double-blind, placebo-controlled, parallel group study of the safety and efficacy of pre-seasonal sublingual cyanocobalamin lozenges on moderate to moderately severe seasonal allergic rhinitis in humans”. The study took place before and during the ragweed pollen season at 23 study sites in the Midwest, Northeast and Central Texas regions of the United States. Essentially all of the 23 investigators were Board Certified in Allergy/Immunology. Qualified subjects were randomized into an active or placebo group (approximately 50% and 50%) using an interactive voice recognition system (IVRS). All subjects (or their guardians) signed an Informed Consent form approved by the IRB. Each subject had three visits to the clinic. At Visit 1 and at Visit 3, they were given a physical exam (HEENT, chest, lungs, heart, vital signs, height and weight); and donated blood and urine samples for laboratory analysis. CBC and chemistry panels were run for safety analyses. The blood samples were analyzed by chemiluminescent immunoassay for the presence of ragweed specific immunoglobulin epsilon (IgE), and were assayed for cobalamins (cyanocobalamin, methylcobalamin and adenosylcobalamin) levels.
# Subjects were given their study medication, either 3.3 mg Cyanocobalamin, USP or placebo in the a.m. and p.m. Subjects were instructed to let the study drug “dissolve completely in your mouth, especially under your tongue, then swallow.”. Subjects self-administered the study medications for six consecutive weeks.
# Any adverse event (AE) or serious adverse event (SAE) was documented by the subject in a paper diary and then transcribed to the appropriate case report form (CRF) page. All SAEs were attended to by the investigator, and reported to the FDA by the sponsor. All sites were monitored multiple times by qualified monitors.
# The following types of headaches were self-diagnosed and documented by subjects in the study: tension headache, headache, migraine, increased frequency of headaches, worsening sinus migraine headache, increased headache, headache worsening, worsening of migraine, sinus headache, severe sinus headache, and sinus pressure headache.
# The following types of body pains and myasthenia were self-diagnosed and documented by subjects in the study: ear pain, earache, sore throat, sore muscles, leg cramps, myalgia, back pain, sprained ankle, ache, toothache, hip pain, finger pain, knee pain, pulled back muscle, shoulder pain, pulled hamstring, neck pain, femur pain, gum pain, sore muscle, toenail pain, sore foot, and pulled neck muscle.
# [3] = test system: human subjects with demonstrated seasonal allergic rhinitis (hay fever); test: Example 1 clinical study: reports of Headache after 21 days of study medication; assay type: in vivo; settings: for post-treatment reports of Headache, decrease from baseline: active group
# Procedure: This clinical study was designed and directed by the inventor of the current patent. […] Subjects were given their study medication, either Cyanocobalamin, USP or placebo in the a.m. and p.m. every day for 21 consecutive days. Data on adverse events including headache was captured throughout the ten-week duration of the study. Week One was a baseline during which time no medication was administered; Weeks Two, Three and Four were the weeks during which time the subjects received their study medication; and Weeks Five through Ten were a post-treatment period during which time no medication was administered but observations of symptoms and adverse events were documented. Each time a subject felt a “Headache”, he or she reported its occurrence.
# [4] = test system: moderate to moderately severe seasonal allergic rhinitis in humans; test: Example 2 Phase 3 study: allergy symptom scores; assay type: in vivo, human; settings: Weeks 4, 5 and 6; ITT; sneezing, runny nose, nasal congestion, nasal itch and eye itch
# Text: (§1) This clinical study was designed and directed by the inventor of the current patent. A large, multi-center, Phase 3, randomized, placebo-controlled clinical study on 1,551 patients was designed and directed by the inventor of the current patent. Methods: The study was titled: “A Phase 3, randomized, double-blind, placebo-controlled, parallel group study of the safety and efficacy of pre-seasonal sublingual cyanocobalamin lozenges on moderate to moderately severe seasonal allergic rhinitis in humans”. The study took place before and during the ragweed pollen season at 23 study sites in the Midwest, Northeast and Central Texas regions of the United States. Essentially all of the 23 investigators were Board Certified in Allergy/Immunology. Qualified subjects were randomized into an active or placebo group (approximately 50% and 50%) using an interactive voice recognition system (IVRS). All subjects (or their guardians) signed an Informed Consent form approved by the IRB. Each subject had three visits to the clinic. […] The blood samples were analyzed by chemiluminescent immunoassay for the presence of ragweed specific immunoglobulin epsilon (IgE), and were assayed for cobalamins (cyanocobalamin, methylcobalamin and adenosylcobalamin) levels. […]
# migraine patients [5] = settings: 2 mg intramuscularly every two weeks for two months, cited from earlier work
# [6] = Example 2 Phase 3 study: blood serum cobalamin levels; assay type: in vivo, human; settings: cyanocobalamin, methylcobalamin and adenosylcobalamin; 3.3 mg a.m. and p.m., six weeks
# Text: as §1
# migraine patients [7] = settings: cited from earlier work; for mean migraine severity: 0-3 scale, all subjects
compound,measurement,setting,value
"5,6-dimethylbenzimidazolyl cyanocobamide [cyanocobalamin]",safety / tolerability,[1],well tolerated
same,headache and body pain reports rated Mild,[2],63 reports
same,"headache and body pain reports rated Mild, share",[2],46.0%
same,headache and body pain reports rated Moderate,[2],68 reports
same,"headache and body pain reports rated Moderate, share",[2],49.6%
same,headache and body pain reports rated Severe,[2],6 reports
same,"headache and body pain reports rated Severe, share",[2],4.4%
same,documented reports of some type of headache and of body pain,[2]; of 294 reports in total,137 reports
same,"post-treatment reports of Headache, decrease from baseline",[3]; Week Eight,−2.1
same,"post-treatment reports of Headache, decrease from baseline",[3]; Week Five,−1.4
same,"post-treatment reports of Headache, decrease from baseline",[3]; Week Nine,−3.4
same,"post-treatment reports of Headache, decrease from baseline",[3]; Week Seven,−1.4
same,"post-treatment reports of Headache, decrease from baseline",[3]; Week Six,−1.6
same,"post-treatment reports of Headache, decrease from baseline",[3]; Week Ten,−3.2
same,persistence of effect per follow-up questionnaire,"[3]; almost one year later, 43 active and 49 placebo subjects",persistence of effect lasting almost one year
same,persistence of effect after finishing the treatment,[3]; post-treatment Weeks Five through Ten,at least six weeks
same,greater reduction in the frequency of headache in the active group versus placebo,[3]; six post-treatment weeks,five out of six post-treatment weeks
same,reduction in allergy symptom severity from baseline versus placebo,[4],greater for the active group than the placebo group
same,authors' conclusion on therapeutic effect,migraine patients [5],no therapeutic effect attributable to cyanocobalamin was demonstrated
same,patients reporting Considerable improvement,migraine patients [5]; active n=15,2
same,patients reporting Good result,migraine patients [5]; active n=15,4
same,average increase in post-treatment blood serum cobalamin levels,[6],more than 250%
C/C1=C2/[N-][C@H]([C@H](CC(N)=O)[C@@]2(C)CCC(=O)NC[C@@H](C)OP(=O)([O-])O[C@H]2[C@@H](O)[C@@H](n3cnc4cc(C)c(C)cc43)O[C@@H]2CO)[C@]2(C)N=C(/C(C)=C3N=C(/C=C4N=C1[C@@H](CCC(N)=O)C\4(C)C)[C@@H](CCC(N)=O)[C@]\3(C)CC(N)=O)[C@@H](CCC(N)=O)[C@]2(C)CC(N)=O.[Co+3].[OH-] [hydroxocobalamin],mean migraine severity,migraine patients [7]; at baseline,2.2
same,mean migraine severity,migraine patients [7]; at the end of the study,2.1
same,effect on migraine,"migraine patients [7]; intranasal, unblinded, open-label, 19 migraine patients",can have an effect on migraine
